{"source": "patent US6544995B1", "about": "“Use of cysteine derivatives for preparing a medicine for treating pathologies resulting from the formation of heterotrimeric G protein” (Societe de Conseils de Recherches et d'Applications …, priority 1998, dated 2003)", "key": {"MAP kinase": {"system": "MAP kinase", "assay": "MAP kinase activity in MCF7 cells", "format": "cell-based, human", "conditions": "for activity of the MAP kinase after EGF stimulation: pretreatment 1 hour, then EGF for 5 minutes", "protocol": "After 24 hours of culture, the cells are incubated for 48 hours in medium containing no serum in order to return the cells to a state of rest. The cells are then treated for 1 hour either with compound I or with PD98059 (Calbiochem, France Biochem, Meudon, France), a specific inhibitor of MAP kinase activation. The cells are then stimulated (or not) for 5 minutes with 12.5 ng/ml of epidermal growth factor (EGF). The reaction is stopped by two washes with PBS (Gibco-Brl, Cergy-Pontoise, France), at 4° C. containing neither calcium nor magnesium and by adding 150 μl of lysis buffer at 4° C. the composition of which is the following: 10 mM of tris, 150 mM of NaCl, 2 mM of EGTA, 2 mM of dithiothreitol, 1 mM of PMSF, 2 mM of orthovanadate, 10 μg/ml of leupeptin and 10 μg/ml of aprotinin. Measurement of the proteins contained in the extracts is carried out by Bradford's method (Biorad reagents, Ivry-Sur-Seine, France). […] The radioactivity is determined using a Packard scintillation counter (Tricarb 5000CA)."}, "MCF7 human tumour cells": {"system": "MCF7 human tumour cells", "assay": "In vitro cell proliferation of MCF-7 cells (WST1)", "format": "cell-based", "conditions": "96 hours treatment, WST1 test, average of 2 experiments, read-out: IC50, inhibition of in vitro growth of MCF7 cells", "protocol": "The cells were treated on day 1 for 96 hours with increasing concentrations of up to 50 μM of each of the compounds to be tested. After this period, quantification of cell proliferation is determined by a colorimetric test, based on the cleavage of the WST1 tetrazolum salt by the mitochondrial dehydrogenases in the viable cells, leading to the formation of formazan (Boehringer Mannheim, Meylan, France). These tests are carried out in duplicate with 8 determinations per concentration tested. For each compound to be tested, the values included in the linear part of the sigmoid were retained for linear regression analysis and used to estimate the inhibitory concentration (IC50)."}, "[1]": {"system": "production of cyclic AMP stimulated by VIP in MCF7 cells", "assay": "Cyclic AMP production stimulated by VIP in MCF-7 cells", "format": "cell-based, human"}, "[2]": {"system": "production of cyclic AMP stimulated by VIP in MCF7 cells", "assay": "Cyclic AMP production stimulated by VIP in MCF-7 cells", "format": "cell-based, human", "conditions": "for Inhibition at 30 μM of production of cyclic AMP stimulated by VIP / inhibition at 30 µM: MCF7 cells, compound 30 μM for 30 minutes, then 10^-8 M VIP, n=1; for inhibition at 30 µM: Homo sapiens, 0.5 h", "protocol": "The cells are incubated for 30 minutes in the presence or not of compounds I, II, III and IV (30 μM) which are then stimulated by 10^−8 M of VIP. The quantification of cyclic AMP is determined by radioimmunoassay. The data represents the average±MSD (n=5 for the control and n=1 for the different compounds)."}, "adenylate cyclase [3]": {"system": "adenylate cyclase", "quoted_text": "(§1) MCF-7 cells (2.10^4 cells/well) seeded in 24-well plates are cultured for 5 days in Dulbecco's modified Eagle medium (Gibco-Brl, Cergy-Pontoise, France) completed with 10% of foetal calf serum inactivated by heating (Gibco-Brl, Cergy-Pontoise, France ), 50000 units/l of penicillin and 50 mg/l streptomycin (Gibco-Brl, Cergy-Pontoise, France), and 2 mM of glutamin (Gibco-Brl, Cergy-Pontoise, France). The culture medium is replaced after two washes with a medium without a serum completed or uncompleted with the specified agents for a time indicated in the different figures. Agents activating the production of cyclic AMP are then added at 37° C. The reaction is stopped after 30 minutes by suppressing the medium and rapidly adding 100 μl of a 0.1N solution of HCl. These extracts are frozen at −80° C. until they are used. The concentration of cAMP is measured using a commercial measurement kit (reference NEK033 from NEN, Les Ulis, France), following the manufacturer's instructions. The radioactivity is determined by a Gamma counter (Gamma Master-1277, LKB, Turku, Finland)."}, "heterotrimeric G protein": {"system": "heterotrimeric G protein", "format": "cell-based, human"}, "adenylate cyclase [4]": {"system": "adenylate cyclase", "conditions": "pretreatment 30 minutes with 30 μM; forskolin 10 μM", "quoted_text": "as §1"}}, "note": "Read-outs that look alike come from different tables or passages of the source. Where no end group is shown, it is not given here.", "data": [{"compound": "COc1cccc(-c2cc(=O)c3ccccc3o2)c1N", "note": "[PD98059, reference compound]", "values": [{"measurement": "activity of the MAP kinase after EGF stimulation", "setting": "MAP kinase", "result": "halves"}]}, {"compound": "COc1ccccc1-c1cn2c(n1)C(CC1CCCCC1)N(C(=O)C(N)CSSCC(N)C(=O)N1CCn3cc(-c4ccccc4OC)nc3C1CC1CCCCC1)CC2", "note": "(stereo not drawn) [compound (I)]", "values": [{"measurement": "IC50", "setting": "MCF7 human tumour cells", "result": 9.4, "unit": "µM"}, {"measurement": "inhibition of accumulation of cyclic AMP stimulated by VIP at 100 μM", "setting": "[1]; 100 μM, 30-minute pretreatment, VIP 10 nM", "result": "almost complete inhibition"}, {"measurement": "inhibition of accumulation of cyclic AMP stimulated by VIP, concentration dependence", "setting": "[1]; 30-minute pretreatment, VIP 10 nM", "result": "in a concentration-dependent manner"}, {"measurement": "effect on response to VIP, treatment for an hour", "setting": "[1]; 1 hour treatment", "result": "sufficient to modify the response to VIP"}, {"measurement": "effect on production of cyclic AMP, longer treatments", "setting": "[1]; 8 hours and 24 hours treatment, VIP", "result": "continue to inhibit"}, {"measurement": "activity of the MAP kinase after EGF stimulation", "setting": "MAP kinase", "result": "halves"}, {"measurement": "basal activity of the MAP kinase", "setting": "MAP kinase; treatment for 1 hour, no EGF", "result": "doubles"}, {"measurement": "Inhibition at 30 μM of production of cyclic AMP stimulated by VIP", "setting": "[2]", "result": 86, "unit": "%"}, {"measurement": "effect on adenylate cyclase activity increased by prostaglandin E2", "setting": "adenylate cyclase [3]; treatment for 30 minutes", "result": "inhibited"}, {"measurement": "effect on production of cyclic AMP stimulated by choleric toxin", "setting": "heterotrimeric G protein", "result": "greatly inhibited"}, {"measurement": "effect on production of cyclic AMP induced by forskolin", "setting": "adenylate cyclase [4]", "result": "does not modify"}]}, {"compound": "CC(C)CC1c2nc(-c3cccc4ccccc34)cn2CCN1C(=O)C(N)CSSCC(N)C(=O)N1CCn2cc(-c3cccc4ccccc34)nc2C1CC(C)C", "note": "(stereo not drawn) [compound (II)]", "values": [{"measurement": "IC50", "setting": "MCF7 human tumour cells", "result": 15, "unit": "µM"}, {"measurement": "Inhibition at 30 μM of production of cyclic AMP stimulated by VIP", "setting": "[2]", "result": 71, "unit": "%"}]}, {"compound": "Cc1ccccc1-c1cn2c(n1)C(CC1CCCCC1)N(C(=O)C(N)CS)CC2", "note": "(stereo not drawn) [compound (III), 7-(2-amino-1-oxo-3-thiopropyl)-8-(cyclohexylmethyl)-2-(2-methylphenyl)-5,6,7,8-tetrahydroimidazo[1.2a]pyrazine]", "values": [{"measurement": "IC50", "setting": "MCF7 human tumour cells", "result": 16.1, "unit": "µM"}, {"measurement": "Inhibition at 30 μM of production of cyclic AMP stimulated by VIP", "setting": "[2]", "result": 59, "unit": "%"}]}, {"compound": "COC(=O)[C@@H](CC(C)C)NC(=O)c1ccc(NC[C@@H](N)CS)cc1-c1ccccc1", "note": "[compound (IV)]", "values": [{"measurement": "IC50", "setting": "MCF7 human tumour cells; Homo sapiens, MCF7", "result": 34.6, "unit": "µM"}, {"measurement": "inhibition at 30 µM", "setting": "[2]", "result": 52, "unit": "%"}]}, {"compound": "CCCCC1c2nc(-c3ccccc3OC)cn2CCN1C(=O)C(N)CS", "note": "(stereo not drawn) [compound (V), 7-(2-amino-1-oxo-3-thiopropyl)-8-butyl-2-(2-methoxyphenyl)-5,6,7,8-tetrahydroimidazo[1.2a]pyrazine]", "values": [{"measurement": "Inhibition at 30 μM of production of cyclic AMP stimulated by VIP", "setting": "[2]", "result": 68, "unit": "%"}]}, {"compound": "CCC(C)C1c2nc(-c3ccccc3OC)cn2CCN1C(=O)C(N)CSSCC(N)C(=O)N1CCn2cc(-c3ccccc3OC)nc2C1C(C)CC", "note": "(stereo not drawn) [compound (VI), bis-1,1′-[7-(2-amino-1-oxo-3-thiopropyl)-2-(methoxyphenyl)-8-(1-methylpropyl)-5,6,7,8-tetrahydroimidazo[1.2a]pyrazine]]", "values": [{"measurement": "Inhibition at 30 μM of production of cyclic AMP stimulated by VIP", "setting": "[2]", "result": 52, "unit": "%"}]}, {"compound": "CCCC[C@H]1CN(C(=O)c2cccc3ccccc23)CCN1C[C@@H]1CSSC[C@H](N)C(=O)N1", "note": "[compound (VII)]", "values": [{"measurement": "inhibition at 30 µM", "setting": "[2]", "result": 65, "unit": "%"}]}, {"compound": "CCCCC[C@H](O)/C=C/[C@H]1[C@H](O)CC(=O)[C@@H]1C/C=C\\CCCC(=O)O", "note": "[prostaglandin E2, reference compound]", "values": [{"measurement": "activity of adenylate cyclase", "setting": "adenylate cyclase [3]; prostaglandin E2 alone, MCF7 cells", "result": "greatly increased"}]}, {"compound": "EGF: epidermal growth factor used to stimulate MAP kinase [reference compound]", "values": [{"measurement": "increase of MAP kinase activity", "setting": "MAP kinase; stimulation by EGF for 5 minutes", "result": "approximately 7 times"}]}, {"compound": "VIP: vasoactive intestinal peptide, ligand of a G protein-coupled receptor stimulating cyclic AMP synthesis (HSDAVFTDNYTRLRKQMAVKKYLNSILN; ends and bridges not checked; UniProt P01282 125-152, looked up) [reference compound]", "values": [{"measurement": "intracellular quantity of cyclic AMP", "setting": "[2]; treatment of MCF-7 cells with VIP alone", "result": "increases the intracellular quantity of cyclic AMP in a concentration-dependent manner"}]}]}
